Data: patent US20240254135A1, “POLYPHENOL COMPOUNDS” (Epirium Bio Inc., priority 2022, published 2024)

Tested on: PGC-1α
Experiment: In vivo PGC-1α expression in liver of LPS-treated mice (ELISA)
Set-up: species or system C57BL/6 mice
Details: for PGC-1α level / PGC-1α levels: liver, male C57BL/6 mice, LPS 3 mg/Kg IP + compound 10 mg/kg PO BID, 24 h post LPS; for PGC-1α levels: third set: Control 38327, LPS alone 16860
Method: C57BL/6 mice were procured from Vivo Bio Tech Ltd. Male mice were used for the study within an age range of 7 to 8 weeks. Body weight for these mice ranged from 20 g to 25 g. Animals were housed in a group of 6 in individually ventilated cages with temperature of 22±3° C., a relative humidity of 50 to 60%. The bottom of the cages was layered with sterilized corn cob. Animals were provided with gamma irradiated feed and autoclaved drinking water ad-libitum. The IVCs were maintained at an environment controlled (Centrally Air-Conditioned) room at a temperature of 22±3° C., a relative humidity of 50 to 60%, light intensity of 250-300 lux and a 12 hour light-dark cycle and noise intensity of <85 db.
Method of Preparation: LPS was dosed at 3 mg/kg in a dose volume of 10 ml/kg. For this, 0.3 mg/ml of LPS solution (Micronized suspension) was prepared. Butter paper was placed on analytical balance, tarred and LPS was placed on butter paper and its weight was noted down. LPS was transferred to 15 ml falcon tube. Then required amount of normal saline was added to it to make it 0.3 mg/ml. The solution was vortexed properly for 5 minutes and placed on ice. LPS solution was vortexed every time before aspiration and injection.
LPS was dosed at 3 mg/kg. Each test compound was dosed at 10 mg/kg, 2 hour and 15 min post LPS administration.
0.5% CMC was used as a vehicle with a dose volume of 10 ml/kg. An IP route was used for LPS, and a PO route was used for each test compound. Animals were sacrificed 24 hours post LPS dosing, and plasma were collected. PGC-1α level was measured in liver samples, and other tissues were stored for future analysis. PGC-1α level was checked using ELISA kit—CUSABIO Mouse PPARGCIA ELISA kit.
Protocol: One day before start of the experiment C57BL/6 Mice (Male, 6-7-week-old) were randomized on the basis of their body weight and were divided into groups. All the cages were assigned the respective group name. Animals inside each cage were marked on the base of the tails with permanent marker to distinguish each animal. Mice were fasted overnight. Next day morning animals were dosed with test item. Group 1 (Control) and Group 2 (LPS) Animals were dosed with vehicle (0.5% CMC). Test items were prepared in 0.5% CMC by trituration in mortar and pestle and addition of CMC drop by drop. 2 hour post test item/vehicle dosing animals were administered with LPS through IP route at 3 mg/kg of body weight. Group 1 (Control) animals were administered with saline. 0.25 hour post LPS administration, animals were again dosed with test item/vehicle. Post dosing, animals were returned to their respective cages and kept until termination of the study. No feed was offered to any group. Animals were provided with water. 24 hour post LPS administration, blood was collected from each animal under influence of mild isoflurane anesthesia through retro-orbital technique. Animals were sacrificed by CO2 asphyxiation technique. Post-termination, animals were dissected and vital organs, liver, brain, skeleton muscle were collected in Eppendorf tubes and flash frozen in liquid nitrogen. Serum was collected from whole blood by centrifuging it at 4° C. at 10,000 RPM and for 10 minutes. (Blood was left for 2 hour for coagulation before centrifugation) After completion of the experiment, all collected samples were stored at −80° C. until analysis.
Assay Methods/Protocol: The mortar was chilled with liquid nitrogen and then the small tissue pieces were grinded in the presence of liquid nitrogen to a fine powder. Immediately after grinding, transferred small amount of tissue powder to a 1.5 ml micro centrifuge tube containing 1.0 ml lysis buffer (RIPA buffer+Protease inhibitor). The samples were then incubated on ice for 2 hours. The samples were vortexed every 15 minutes. The samples were then centrifuged at 13000×g for 15 minutes at 2-8° C. After centrifugation the supernatant was removed carefully and pellet was discarded. […]

[1] = as E21, relative to Control = 100, LPS alone 51
[2] = first set: Control 35303, LPS alone 18139
[3] = as E23, relative to Control = 100, LPS alone 66
[4] = second set: Control 25677, LPS alone 16956
[5] = as E25, relative to Control = 100, LPS alone 44

Compound	PGC-1α level (%) [1]	PGC-1α level [2]	PGC-1α level (%) [3]	PGC-1α level [4]	PGC-1α level (%) [5]	PGC-1α levels
COc1cc(C2Oc3ccccc3CC2O)ccc1F (single isomer, unassigned) [Compound 75b, 2-(4-fluoro-3-methoxyphenyl)chroman-3-ol]	92%	32354 pg/mL				
Oc1cc(O)c2c(c1)OC(c1ccc(O)c(F)c1)C(O)C2 (single isomer, unassigned) [Compound 76b, 2-(3-fluoro-4-hydroxyphenyl)chromane-3,5,7-triol]			81%	20790 pg/mL		
Oc1ccc2c(c1)OC(c1ccc(O)c(C(F)(F)F)c1)C(O)C2 (single isomer, unassigned) [Compound 77b, 2-(4-hydroxy-3-(trifluoromethyl)phenyl)chromane-3,7-diol]			148%	37954 pg/mL		
Oc1cc(O)c2c(c1)OC(c1ccccc1)C(O)C2 (single isomer, unassigned) [Compound 78a, 2-phenylchromane-3,5,7-triol]					96%	36967 pg/mL
Oc1cc(O)c2c(c1)O[C@H](c1ccc(O)c(O)c1)[C@H](O)C2 [Epicatechin, (+)Epicatechin, reference compound]	90%	31729 pg/mL	122%	31225 pg/mL	71%	27272 pg/mL
